Read-outs that look alike come from different tables or passages of the source.
Assays:
KDM2B = molecular target: T1, KDM2B (Homo sapiens, UniProt Q8NHM5); experiment: Biochemical KDM inhibition assay (LANCE), KDM2B; conditions: read-out: Biochemical IC50 KDM 2B
T1 construct: host or cells: Sf9 cells
T1 sequence (Q8NHM5 1-1336): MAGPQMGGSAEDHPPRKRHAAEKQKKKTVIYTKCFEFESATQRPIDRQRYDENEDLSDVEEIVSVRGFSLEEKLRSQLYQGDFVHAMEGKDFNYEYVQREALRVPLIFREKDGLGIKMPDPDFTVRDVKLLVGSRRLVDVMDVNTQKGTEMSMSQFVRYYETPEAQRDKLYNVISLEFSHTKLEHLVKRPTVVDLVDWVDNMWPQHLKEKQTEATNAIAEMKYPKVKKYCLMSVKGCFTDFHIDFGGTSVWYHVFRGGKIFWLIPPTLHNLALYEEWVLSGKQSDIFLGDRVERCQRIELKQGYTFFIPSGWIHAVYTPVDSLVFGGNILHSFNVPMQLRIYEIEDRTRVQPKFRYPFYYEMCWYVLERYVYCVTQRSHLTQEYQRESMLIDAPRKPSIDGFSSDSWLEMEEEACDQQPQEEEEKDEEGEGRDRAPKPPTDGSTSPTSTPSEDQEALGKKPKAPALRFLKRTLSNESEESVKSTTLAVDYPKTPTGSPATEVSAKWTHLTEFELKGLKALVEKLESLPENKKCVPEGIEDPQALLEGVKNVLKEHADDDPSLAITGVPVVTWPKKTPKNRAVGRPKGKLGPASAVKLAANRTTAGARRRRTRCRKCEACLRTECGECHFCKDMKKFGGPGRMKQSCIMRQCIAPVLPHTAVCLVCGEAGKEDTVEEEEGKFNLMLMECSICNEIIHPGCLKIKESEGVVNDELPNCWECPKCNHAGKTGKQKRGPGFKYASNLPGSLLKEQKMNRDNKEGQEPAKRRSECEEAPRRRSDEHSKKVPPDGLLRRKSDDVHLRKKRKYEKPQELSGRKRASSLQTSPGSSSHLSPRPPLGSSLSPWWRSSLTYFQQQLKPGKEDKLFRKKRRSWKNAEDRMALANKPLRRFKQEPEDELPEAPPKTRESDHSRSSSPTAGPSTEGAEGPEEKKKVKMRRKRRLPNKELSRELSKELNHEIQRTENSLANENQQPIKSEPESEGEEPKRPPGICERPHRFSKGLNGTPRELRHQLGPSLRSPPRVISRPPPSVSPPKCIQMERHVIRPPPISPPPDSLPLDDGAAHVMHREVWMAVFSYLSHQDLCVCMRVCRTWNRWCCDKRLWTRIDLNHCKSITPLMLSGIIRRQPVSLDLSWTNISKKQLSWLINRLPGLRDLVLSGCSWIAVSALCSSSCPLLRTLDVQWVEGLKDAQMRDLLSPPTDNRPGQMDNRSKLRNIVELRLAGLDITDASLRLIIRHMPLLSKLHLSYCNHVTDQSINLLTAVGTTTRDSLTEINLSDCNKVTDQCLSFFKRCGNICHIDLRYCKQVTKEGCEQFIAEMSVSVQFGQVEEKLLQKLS
Experimental: Representative compounds were characterized for their inhibition of KDM5 using biotinylated histone substrates. Inhibition was measured in vitro (CEREP Poitier, Le Bois l'Evêque, France) following experimental conditions described in Table 2. Briefly, the test compound, reference compound or water (control) was mixed with about 2-20 ng of recombinant, Human enzymes expressed in Sf9 cells in a buffer containing 45 mM Hepes/Tris (pH 7), 5 μM FAS, 100 μM ascorbic acid, 10 μM 2-oxoglutarate, 0.01% Tween 20 and 0.01% BSA. Thereafter, the reaction was initiated by adding the biotin-labeled substrate, and the mixture was incubated for 10-30 min at room temperature. For basal control measurements, the enzyme was omitted from the reaction mixture. Following incubation the reaction was stopped by adding 1 mM EDTA. After 5 min, the anti-methyl histone antibody labeled with europium chelate and the Ulight streptavidine (Perkin Elmer Waltham, Mass.) were added. After 60 min more, the fluorescence transfer was measured at λex=320 nm and λem=620 and λem=665 nm using a microplate reader (Envision, Perkin Elmer) (LANCE). The enzyme activity was determined by dividing the signal measured at λem=665 nm by that measured at 620 nm (ratio).

KDM4A = molecular target: T2, KDM4A (Homo sapiens, UniProt O75164); experiment: Biochemical KDM inhibition assay (LANCE), KDM4A; conditions: read-out: Biochemical IC50 KDM 4A
T2 construct: host or cells: Sf9 cells
T2 sequence (O75164 1-1064): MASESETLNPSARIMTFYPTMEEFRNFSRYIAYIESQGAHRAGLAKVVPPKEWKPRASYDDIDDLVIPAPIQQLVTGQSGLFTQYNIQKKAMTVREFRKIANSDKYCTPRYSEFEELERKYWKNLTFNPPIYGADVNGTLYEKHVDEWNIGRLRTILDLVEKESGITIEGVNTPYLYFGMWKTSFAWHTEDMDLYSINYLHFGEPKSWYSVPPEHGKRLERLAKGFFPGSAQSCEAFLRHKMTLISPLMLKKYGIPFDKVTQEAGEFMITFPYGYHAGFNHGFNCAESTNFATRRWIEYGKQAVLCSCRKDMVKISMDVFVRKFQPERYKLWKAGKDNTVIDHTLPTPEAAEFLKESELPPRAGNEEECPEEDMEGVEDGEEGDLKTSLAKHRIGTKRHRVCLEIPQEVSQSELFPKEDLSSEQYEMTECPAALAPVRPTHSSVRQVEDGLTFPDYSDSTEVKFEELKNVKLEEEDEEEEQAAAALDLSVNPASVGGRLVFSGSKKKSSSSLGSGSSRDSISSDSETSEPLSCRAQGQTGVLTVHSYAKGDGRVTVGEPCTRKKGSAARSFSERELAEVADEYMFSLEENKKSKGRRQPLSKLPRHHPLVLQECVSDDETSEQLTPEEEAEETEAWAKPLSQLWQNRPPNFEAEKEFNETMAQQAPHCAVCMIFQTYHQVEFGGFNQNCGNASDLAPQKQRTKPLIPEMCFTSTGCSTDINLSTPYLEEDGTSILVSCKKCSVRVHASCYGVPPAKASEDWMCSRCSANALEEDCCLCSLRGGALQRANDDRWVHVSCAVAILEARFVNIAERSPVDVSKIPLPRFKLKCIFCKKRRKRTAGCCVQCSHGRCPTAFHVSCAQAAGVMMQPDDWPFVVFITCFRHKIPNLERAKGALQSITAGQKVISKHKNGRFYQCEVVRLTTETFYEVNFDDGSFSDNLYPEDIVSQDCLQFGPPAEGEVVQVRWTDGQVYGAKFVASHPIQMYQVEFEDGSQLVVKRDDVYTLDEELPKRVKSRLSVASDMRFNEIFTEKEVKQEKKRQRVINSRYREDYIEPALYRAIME

HBV = experiment: Determination of HBV viral RNA by RT-qPCR in PHH; type: cell-based; conditions: Hepatitis B virus, read-out: HBV RNA EC50
Experimental: HBV antiviral activity was assessed in primary human hepatocytes (PHH) in a 96-well format. PHH were (Life Technologies, Chicago, 11) plated on collagen coated tissue culture plates using Plating Media containing William's Medium E supplemented with 1% Penicillin/Streptomycin, 4 μg/mL human recombinant insulin, 2 mM glutamax, 15 mM Hepes, 1 μM dexamethasone and 5% fetal bovine serum (Life Technologies, Cat#A12176-01 Life Technologies, Chicago, Ill.). After a 4-hour incubation at 37° C., cells were switched to Maintenance Media (Cat#CM4000-A15564 Life Technologies, Chicago, Ill.) containing William's Medium E supplemented with 0.5% Penicillin/Streptomycin, 6.25 μg/mL human recombinant insulin, 6.25 μg/mL human transferrin, 6.25 ng/mL selenous acid, 1.25 mg/mL bovine serum albumin, 5.35 μg/mL linoleic acid, 2 mM glutamax, 15 mM Hepes, 0.1 μM dexamethasone, 2% fetal bovine serum, and 2% DMSO (Cat#D2650 Sigma, St. Louis, Mo.). On the next day, cells were infected with approximately 500 genome equivalent of selected HBV clinical isolates (21P (GTA), 32P (GTA), 91P (GTA), AD38 (GTD), 65P (GTD) or 30P (GTE); ProteoGenex, Culver City, Calif.) per cell in Maintenance Media supplemented with 4% PEG 8000 (Cat#V3011 Promega, Madison, Wis.). After 24 hour incubation cells were washed three times with William's Medium E and fed with fresh Maintenance Media. Small molecule inhibitors targeting KDMs were serially diluted in Maintenance Media and added to cells at 3 days post infection (p.i.). Media with compounds was replenished every 2-3 days. Media collected on various days was used for determination of HBsAg and HBeAg levels by MSD ELISA, and HBV RNA by qPCR. All data were converted into percentages of the untreated control and non-linear regression was performed to calculate EC50 or CC50 values.
Following the Alamar Blue measurement, media was removed and total RNA from the cells was isolated using the RNeasy 96 Kit (Cat#74182 Qiagen, Venlo, Netherlands). […] GAPDH mRNA levels were also measured by RT-qPCR to control for differences in cell number, toxicity, and RNA purification efficiency (Cat#4390849 Life Technologies, Chicago Ill.). HBV mRNA Ct values were normalized using their cognate GAPDH mRNA Ct values by the delta-delta-Ct calculation and then expressed as a percentage of the non-targeting scrambled control.

SMILES | IC50 (KDM2B) | IC50 (KDM4A) | EC50 (HBV) | EC50 (HBV; HBV-infected PHH)
CCN(CCN(C)C)C(=O)CNCc1cc(C(=O)O)ccn1 [Example 9] | 1600 nM | 350 nM |  | 
Cc1cc(Cl)ccc1COc1ccnn1-c1cc(C(=O)O)ccn1 [Example 11] | 660 nM | 1000 nM |  | 
CCOC(=O)c1ccnc(CNCC(=O)N(CC)CCN(C)C)c1 [Example 8] |  |  | 100 nM | 
O=C(O)c1ccncc1Nc1nn(CCN2CCC(F)(F)CC2)c2ccc(F)cc12 [Example 13] | 2400 nM | 1100 nM |  | 
Nc1c(C(=O)O)ccnc1C(=O)O [Example 7, reference compound] | 160 nM | 490 nM |  | 224 nM
CCN(CC)CCCCNCc1cc(C(=O)O)ccn1 [Example 18] | 12000 nM | 390 nM |  | 

Source: patent US20160303095A1, “METHODS OF TREATING HEPATITIS B VIRUS” (Gilead Sciences, Inc., priority 2015, published 2016)
